Bounds are passed on as bounds.

A word on the Dmax: it is the greatest extent of degradation seen. A high value points to deep degradation.

T1 sequence (Q5S007 whole entry): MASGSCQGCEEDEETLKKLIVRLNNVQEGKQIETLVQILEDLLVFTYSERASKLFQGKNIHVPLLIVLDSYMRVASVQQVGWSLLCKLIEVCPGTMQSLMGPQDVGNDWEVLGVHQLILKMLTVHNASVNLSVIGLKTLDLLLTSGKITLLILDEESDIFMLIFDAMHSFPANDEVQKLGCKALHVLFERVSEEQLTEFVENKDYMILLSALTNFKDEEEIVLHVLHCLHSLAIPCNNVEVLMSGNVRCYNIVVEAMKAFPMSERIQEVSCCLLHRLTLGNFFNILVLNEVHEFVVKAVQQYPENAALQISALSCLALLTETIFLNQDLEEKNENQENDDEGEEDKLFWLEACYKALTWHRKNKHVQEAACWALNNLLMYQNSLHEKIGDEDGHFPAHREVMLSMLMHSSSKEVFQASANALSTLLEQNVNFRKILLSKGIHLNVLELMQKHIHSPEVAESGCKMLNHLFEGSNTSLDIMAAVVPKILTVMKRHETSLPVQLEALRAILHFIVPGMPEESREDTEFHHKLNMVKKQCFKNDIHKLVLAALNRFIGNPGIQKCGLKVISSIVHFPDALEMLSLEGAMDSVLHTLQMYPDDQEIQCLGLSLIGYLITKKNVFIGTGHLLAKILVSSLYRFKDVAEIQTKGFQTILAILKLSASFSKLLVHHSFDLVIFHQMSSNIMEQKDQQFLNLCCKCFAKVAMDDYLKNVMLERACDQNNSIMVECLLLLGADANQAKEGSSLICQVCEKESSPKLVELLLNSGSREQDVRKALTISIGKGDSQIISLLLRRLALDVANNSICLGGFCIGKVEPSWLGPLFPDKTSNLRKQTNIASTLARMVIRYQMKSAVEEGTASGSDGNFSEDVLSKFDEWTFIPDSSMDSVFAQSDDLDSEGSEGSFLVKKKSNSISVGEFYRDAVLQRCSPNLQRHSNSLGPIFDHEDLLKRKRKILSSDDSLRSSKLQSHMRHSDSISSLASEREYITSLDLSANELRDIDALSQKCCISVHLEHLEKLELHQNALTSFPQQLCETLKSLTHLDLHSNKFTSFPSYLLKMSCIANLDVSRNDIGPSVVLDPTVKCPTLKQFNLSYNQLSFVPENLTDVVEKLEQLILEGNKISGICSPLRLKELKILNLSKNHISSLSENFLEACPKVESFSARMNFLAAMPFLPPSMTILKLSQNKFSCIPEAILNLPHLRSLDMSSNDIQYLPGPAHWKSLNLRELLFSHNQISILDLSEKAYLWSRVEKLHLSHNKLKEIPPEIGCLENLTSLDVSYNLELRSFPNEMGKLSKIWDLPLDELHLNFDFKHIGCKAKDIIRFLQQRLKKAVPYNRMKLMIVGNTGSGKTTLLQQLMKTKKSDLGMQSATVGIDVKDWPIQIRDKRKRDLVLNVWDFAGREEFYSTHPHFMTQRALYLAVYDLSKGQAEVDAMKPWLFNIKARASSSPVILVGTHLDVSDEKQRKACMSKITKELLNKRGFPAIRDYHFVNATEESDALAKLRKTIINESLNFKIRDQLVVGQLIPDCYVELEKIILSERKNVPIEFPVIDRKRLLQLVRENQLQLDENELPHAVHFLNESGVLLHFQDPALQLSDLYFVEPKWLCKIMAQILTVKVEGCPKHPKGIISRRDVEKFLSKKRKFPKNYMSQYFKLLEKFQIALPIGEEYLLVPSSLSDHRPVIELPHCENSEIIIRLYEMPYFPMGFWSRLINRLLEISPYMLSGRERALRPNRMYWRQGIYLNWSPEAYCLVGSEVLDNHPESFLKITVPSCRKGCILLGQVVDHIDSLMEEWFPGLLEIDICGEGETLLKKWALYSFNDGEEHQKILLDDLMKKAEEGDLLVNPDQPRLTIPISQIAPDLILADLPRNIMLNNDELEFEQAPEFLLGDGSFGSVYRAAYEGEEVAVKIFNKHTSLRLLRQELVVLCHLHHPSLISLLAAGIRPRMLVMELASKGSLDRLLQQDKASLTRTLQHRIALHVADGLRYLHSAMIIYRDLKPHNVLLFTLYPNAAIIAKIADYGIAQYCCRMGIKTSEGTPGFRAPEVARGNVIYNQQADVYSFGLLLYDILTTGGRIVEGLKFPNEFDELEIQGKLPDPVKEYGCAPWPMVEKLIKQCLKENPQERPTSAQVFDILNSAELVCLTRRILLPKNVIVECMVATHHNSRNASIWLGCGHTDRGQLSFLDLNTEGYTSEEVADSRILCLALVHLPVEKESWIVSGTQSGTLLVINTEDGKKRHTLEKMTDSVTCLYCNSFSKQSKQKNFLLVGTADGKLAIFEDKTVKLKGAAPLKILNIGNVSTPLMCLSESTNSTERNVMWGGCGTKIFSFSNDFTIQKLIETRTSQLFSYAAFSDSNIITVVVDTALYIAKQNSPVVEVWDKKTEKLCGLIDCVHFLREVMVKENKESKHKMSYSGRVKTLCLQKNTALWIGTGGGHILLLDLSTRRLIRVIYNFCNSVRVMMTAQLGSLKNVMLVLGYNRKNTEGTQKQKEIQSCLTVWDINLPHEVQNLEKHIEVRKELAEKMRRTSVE

This assay concerns the target T1, WT LRRK2 (Homo sapiens, UniProt Q5S007).
T1 construct: endogenous in cells; host or cells: HEK293 cells with HiBit knocked into the endogenous LRRK2 gene, stably expressing firefly luciferase
Kind of assay: LRRK2 degradation HiBit assay in HEK293 cells (Nano-Glo Dual-Luciferase). As to conditions: HiBit-tagged LRRK2 in HEK293 cells, 24 hours compound treatment. It is filed as cell-based.
For the molecule `CC1(Oc2ccc3[nH]nc(-c4cc(N5CCO[C@H](CN6CCN(CC7CCN(c8ccc9c(c8F)CN(C8CCC(=O)NC8=O)C9=O)CC7)CC6)C5)ncn4)c3c2)CC1` (stereo partly drawn) [Example 1, 3-[4-fluoro-5-[4-[[4-[[(2R)-4-[6-[5-(1-methylcyclopropoxy)-1H-indazol-3-yl]pyrimidin-4-yl]morpholin-2-yl]methyl]piperazin-1-yl]methyl]-1-piperidyl]-1-oxo-isoindolin-2-yl]piperidine-2,6-dione], the Dmax fell in the range of 50 to 70%.
For `CC1(Oc2ccc3[nH]nc(-c4cc(N5CCO[C@@H](CN6CCN(CC7CCN(c8ccc9c(c8F)CN(C8CCC(=O)NC8=O)C9=O)CC7)CC6)C5)ncn4)c3c2)CC1` (some centres unmarked) [Example 2] the value was 50 to 70%; for `CC1(Oc2ccc3[nH]nc(-c4cc(N5CCO[C@H](CN6CCN(CC7CCN(c8ccc9c(c8F)CN(C8CCC(=O)NC8=O)C9=O)CC7)CC6(C)C)C5)ncn4)c3c2)CC1` (some centres unmarked) [Example 3], 50 to 70%.
In the case of `COc1c(N2CCC(O[C@H]3C[C@H](N4CCC5(CC4)CN(c4cc(-c6[nH]nc7ccc(OC8(C)CC8)cc67)ncn4)C5)C3)CC2)ccc2c1CN(C1CCC(=O)NC1=O)C2=O` (some centres unmarked) [Example 4, 3-[4-methoxy-5-[4-[3-[2-[6-[5-(1-methylcyclopropoxy)-2H-indazol-3-yl]pyrimidin-4-yl]-2,7-diazaspiro[3.5]nonan-7-yl]cyclobutoxy]-1-piperidyl]-1-oxo-isoindolin-2-yl]piperidine-2,6-dione], the Dmax is 50 to 70%.
In the case of `CC1(Oc2ccc3[nH]nc(-c4cc(N5CCN(C[C@@H]6CN(CCC7CCN(c8ccc9c(c8F)CN(C8CCC(=O)NC8=O)C9=O)CC7)CCO6)CC5)ncn4)c3c2)CC1` (some centres unmarked) [Example 5], the Dmax lay within 50 to 70%.
In turn, `CC1(Oc2ccc3[nH]nc(-c4cc(N5CCN(CCC6(F)CCN(CC7CCN(c8ccc9c(c8F)CN(C8CCC(=O)NC8=O)C9=O)CC7)CC6)CC5)ncn4)c3c2)CC1` (centres unmarked) [Example 6, 3-[4-fluoro-5-[4-[[4-fluoro-4-[2-[4-[6-[5-(1-methylcyclopropoxy)-1H-indazol-3-yl]pyrimidin-4-yl]piperazin-1-yl]ethyl]-1-piperidyl]methyl]-1-piperidyl]-1-oxo-isoindolin-2-yl]piperidine-2,6-dione] came in with a Dmax of 50 to 70%.
`CC1(Oc2ccc3[nH]nc(-c4cc(N5CCC(CN6CC[C@@H](CN7CCN(c8ccc9c(c8F)CN(C8CCC(=O)NC8=O)C9=O)CC7)[C@@H](F)C6)CC5)ncn4)c3c2)CC1` (some centres unmarked) [Example 7] came in with a Dmax of 50 to 70%.
The same measure for `CC1(Oc2ccc3[nH]nc(-c4cc(N5CCN(CCN6CCN(CC7CCN(c8ccc9c(c8F)CN(C8CCC(=O)NC8=O)C9=O)CC7)CC6)CC5)ncn4)c3c2)CC1` (centres unmarked) [Example 8]: 50 to 70%; for `CC1(Oc2ccc3[nH]nc(-c4cc(N5CCN(C[C@@H]6CCN(CC7CCN(c8ccc9c(c8F)CN(C8CCC(=O)NC8=O)C9=O)CC7)C[C@@H]6F)CC5)ncn4)c3c2)CC1` (some centres unmarked) [Example 9]: 50 to 70%.
For `CC1(Oc2ccc3[nH]nc(-c4cc(N5CCN(C[C@H]6CC[C@H](CN7CCN(c8ccc9c(c8F)CN(C8CCC(=O)NC8=O)C9=O)CC7)OC6)CC5)ncn4)c3c2)CC1` (some centres unmarked) [Example 10] the value was 50 to 70%.
`CC1(Oc2ccc3[nH]nc(-c4cc(N5CCC(O[C@@H]6CCN(CC7CCN(c8ccc9c(c8F)CN(C8CCC(=O)NC8=O)C9=O)CC7)C(C)(C)C6)CC5)ncn4)c3c2)CC1` (some centres unmarked) [Example 11] returned a Dmax of 50 to 70%.
For `CC1(Oc2ccc3[nH]nc(-c4cc(N5CCN(C[C@H]6CN(CC7CCN(c8ccc9c(c8F)CN(C8CCC(=O)NC8=O)C9=O)CC7)CCO6)CC5)ncn4)c3c2)CC1` (stereo partly drawn) [Example 12, 3-[4-fluoro-5-[4-[[(2S)-2-[[4-[6-[5-(1-methylcyclopropoxy)-1H-indazol-3-yl]pyrimidin-4-yl]piperazin-1-yl]methyl]morpholin-4-yl]methyl]-1-piperidyl]-1-oxo-isoindolin-2-yl]piperidine-2,6-dione] the value was 50 to 70%; for `CC1(Oc2ccc3[nH]nc(-c4cc(N5CCN(C[C@@H]6CN(CC7CCN(c8ccc9c(c8F)CN(C8CCC(=O)NC8=O)C9=O)CC7)CCO6)CC5)ncn4)c3c2)CC1` (some centres unmarked) [Example 13], 50 to 70%.
For `CC1(Oc2ccc3[nH]nc(-c4cc(N5CCN(C[C@H]6CC[C@H](OC7CCN(c8ccc9c(c8)CN(C8CCC(=O)NC8=O)C9=O)CC7)CC6)CC5)ncn4)c3c2)CC1` (some centres unmarked) [Example 14, 3-[5-[4-[4-[[4-[6-[5-(1-methylcyclopropoxy)-1H-indazol-3-yl]pyrimidin-4-yl]piperazin-1-yl]methyl]cyclohexoxy]-1-piperidyl]-1-oxo-isoindolin-2-yl]piperidine-2,6-dione] the value was 50 to 70%; for `CC1(Oc2ccc3[nH]nc(-c4cc(N5CCN(CC(F)(F)C6CCN(CC7CCN(c8ccc9c(c8F)CN(C8CCC(=O)NC8=O)C9=O)CC7)CC6)CC5)ncn4)c3c2)CC1` (centres unmarked) [Example 15], 50 to 70%.
The same measure for `CC1(Oc2ccc3[nH]nc(-c4cc(N5CCO[C@@H](CN6CCN(CC7CCN(c8ccc9c(c8F)CN(C8CCC(=O)NC8=O)C9=O)CC7)CC6(C)C)C5)cnn4)c3c2)CC1` (some centres unmarked) [Example 16]: 50 to 70%; for `CC1(Oc2ccc3[nH]nc(-c4cc(N5CCN(C[C@H]6CN(CCC7CCN(c8ccc9c(c8F)CN(C8CCC(=O)NC8=O)C9=O)CC7)CCO6)CC5)ncn4)c3c2)CC1` (some centres unmarked) [Example 17]: 50 to 70%.
The molecule `Cc1cc(N2CCC(O[C@H]3CC[C@H](CN4CCN(c5cc(-c6n[nH]c7ccc(OC8(C)CC8)cc67)ncn5)CC4)CC3)CC2)c(F)c2c1C(=O)N(C1CCC(=O)NC1=O)C2` (some centres unmarked) [Example 18, 3-(4-fluoro-7-methyl-5-(4-(((1r,4r)-4-((4-(6-(5-(1-methylcyclopropoxy)-1H-indazol-3-yl)pyrimidin-4-yl)piperazin-1-yl)methyl)cyclohexyl)oxy)piperidin-1-yl)-1-oxoisoindolin-2-yl)piperidine-2,6-dione] yielded a Dmax not below 70%.
Molecule `Cc1cc(N2CCC(CN3CCN(CC4CCN(c5cc(-c6n[nH]c7ccc(OC8(C)CC8)cc67)ncn5)CC4)C(C)(C)C3)CC2)c(F)c2c1C(=O)N(C1CCC(=O)NC1=O)C2` (centres unmarked) [Example 19] yielded a Dmax of 50 to 70%.
For `Cc1cc(N2CCC(O[C@H]3CC[C@@H](CN4CCN(c5cc(-c6n[nH]c7ccc(OC8(C)CC8)cc67)ncn5)CC4)CC3)CC2)c(F)c2c1C(=O)N(C1CCC(=O)NC1=O)C2` (some centres unmarked) [Example 20, 3-(4-fluoro-7-methyl-5-(4-(((1s,4s)-4-((4-(6-(5-(1-methylcyclopropoxy)-1H-indazol-3-yl)pyrimidin-4-yl)piperazin-1-yl)methyl)cyclohexyl)oxy)piperidin-1-yl)-1-oxoisoindolin-2-yl)piperidine-2,6-dione] the value was less than 50%; for `CC1(Cc2ccc3[nH]nc(-c4cc(N5CCC(CN6CCN(CC7CCN(c8ccc9c(c8F)CN(C8CCC(=O)NC8=O)C9=O)CC7)CC6)CC5)ncn4)c3c2)CC1` (centres unmarked) [Example 21], 50 to 70%.
`CC1(Oc2ccc3[nH]nc(-c4cc(N5CCC(C[C@H]6CC[C@@H](OC7CCN(c8ccc9c(c8F)CN(C8CCC(=O)NC8=O)C9=O)CC7)CC6)CC5)ncn4)c3c2)CC1` (some centres unmarked) [Example 22, 3-[4-fluoro-5-[4-[4-[[1-[6-[5-(1-methylcyclopropoxy)-1H-indazol-3-yl]pyrimidin-4-yl]-4-piperidyl]methyl]cyclohexoxy]-1-piperidyl]-1-oxo-isoindolin-2-yl]piperidine-2,6-dione] gave a Dmax not below 70%.
The same measure for `CC1(Oc2ccc3[nH]nc(-c4cc(N5CCC(C[C@H]6CC[C@H](OC7CCN(c8ccc9c(c8F)CN(C8CCC(=O)NC8=O)C9=O)CC7)CC6)CC5)ncn4)c3c2)CC1` (some centres unmarked) [Example 23]: 50 to 70%; for `CC1(Cc2ccc3[nH]nc(-c4cc(N5CCC(OC6CCN(CC7CCN(c8ccc9c(c8F)CN(C8CCC(=O)NC8=O)C9=O)CC7)CC6)CC5)ncn4)c3c2)CC1` (centres unmarked) [Example 24]: less than 50%.
For `CC1(Cc2ccc3[nH]nc(-c4cc(N5CCC(CN6CCN(CC7CCN(c8ccc9c(c8F)CN(C8CCC(=O)NC8=O)C9=O)CC7)CC6(C)C)CC5)ncn4)c3c2)CC1` (centres unmarked) [Example 25] the value was less than 50%; for `CC1(Cc2ccc3[nH]nc(-c4cc(N5CCC(CN6CCN(CC7CCN(c8ccc9c(c8F)CN(C8CCC(=O)NC8=O)C9=O)CC7)C(C)(C)C6)CC5)ncn4)c3c2)CC1` (centres unmarked) [Example 26], 50 to 70%; for `CC1(Oc2ccc3[nH]nc(-c4cc(N5CCC(O[C@H]6CC[C@@H](CC7CCN(c8ccc9c(c8F)CN(C8CCC(=O)NC8=O)C9=O)CC7)CC6)CC5)ncn4)c3c2)CC1` (some centres unmarked) [Example 27], 50 to 70%.
For `COc1c(N2CCC(O[C@H]3CC[C@H](CN4CCN(c5cc(-c6[nH]nc7ccc(CC8(C)CC8)cc67)ncn5)CC4)CC3)CC2)ccc2c1CN(C1CCC(=O)NC1=O)C2=O` (some centres unmarked) [Example 28] the value was 50 to 70%; for `CC1(Oc2ccc3[nH]nc(-c4cc(N5CCC(O[C@H]6CC[C@H](CC7CCN(c8ccc9c(c8F)CN(C8CCC(=O)NC8=O)C9=O)CC7)CC6)CC5)ncn4)c3c2)CC1` (some centres unmarked) [Example 29], not below 70%.
